Reference: PubChem BioAssay AID330 (DTP/NCI, 2004)
“And” between values parts separate entries of the source, which are not always exact repeats. Identical values can stand only once. Toxic doses and inconclusive results are not listed. How the source made its calls: active means survival T/C of 150% or more; inactive means T/C below 125% in these data.

Tested on: P388 leukemia ip, CD2F1 mice, survival T/C
Assay: NCI In Vivo Anticancer Drug Screen. Data for tumor model P388 Leukemia (intraperitoneal) in CD2F1 (CDF1) mice
Details: endpoint: median survival time, higher = longer survival
In short: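 Mice carrying the transplanted tumor received test compound or vehicle. Survival was recorded in each group, and the value is the treated-group measurement divided by that of the vehicle-treated control group.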

[1] = dose: 60.0 mg/kg/injection, schedule: Q01DX005 (ip), vehicle: saline with Tween-80
[2] = dose: 120.0 mg/kg/injection, schedule: Q01DX005 (ip), vehicle: saline with Tween-80
[3] = dose: 240.0 mg/kg/injection, schedule: Q01DX005 (ip), vehicle: saline with Tween-80
[4] = dose: 50.0 mg/kg/injection, schedule: Q01DX005 (ip), vehicle: saline with Tween-80
[5] = dose: 100.0 mg/kg/injection, schedule: Q01DX005 (ip), vehicle: saline with Tween-80
[6] = dose: 200.0 mg/kg/injection, schedule: Q01DX005 (ip), vehicle: saline with Tween-80
[7] = dose: 50.0 mg/kg/injection, schedule: Q01DX009 (ip), vehicle: saline with Tween-80
[8] = dose: 100.0 mg/kg/injection, schedule: Q01DX009 (ip), vehicle: saline with Tween-80
[9] = dose: 200.0 mg/kg/injection, schedule: Q01DX009 (ip), vehicle: saline with Tween-80
[10] = dose: 400.0 mg/kg/injection, schedule: Q01DX009 (ip), vehicle: saline with Tween-80
[11] = dose: 50.0 mg/kg/injection, schedule: Q01DX005 (ip), vehicle: Klucel (hydroxypropylcellulose) (HPC)
[12] = dose: 100.0 mg/kg/injection, schedule: Q01DX005 (ip), vehicle: Klucel (hydroxypropylcellulose) (HPC)
[13] = dose: 200.0 mg/kg/injection, schedule: Q01DX005 (ip), vehicle: Klucel (hydroxypropylcellulose) (HPC)
[14] = dose: 50.0 mg/kg/injection, schedule: Q01DX005 (ip), vehicle: saline
[15] = dose: 100.0 mg/kg/injection, schedule: Q01DX005 (ip), vehicle: saline
[16] = dose: 200.0 mg/kg/injection, schedule: Q01DX005 (ip), vehicle: saline
[17] = dose: 6.25 mg/kg/injection, schedule: Q01DX009 (ip), vehicle: saline with Tween-80
[18] = dose: 12.5 mg/kg/injection, schedule: Q01DX009 (ip), vehicle: saline with Tween-80
[19] = dose: 50.0 mg/kg/injection, schedule: Q01DX009 (ip), vehicle: Klucel (hydroxypropylcellulose) (HPC)
[20] = dose: 25.0 mg/kg/injection, schedule: Q01DX001 (ip), vehicle: saline
[21] = dose: 50.0 mg/kg/injection, schedule: Q01DX001 (ip), vehicle: saline
[22] = dose: 100.0 mg/kg/injection, schedule: Q01DX001 (ip), vehicle: saline
[23] = dose: 25.0 mg/kg/injection, schedule: Q01DX005 (ip), vehicle: Klucel (hydroxypropylcellulose) (HPC)
[24] = dose: 100.0 mg/kg/injection, schedule: Q01DX009 (ip), vehicle: Klucel (hydroxypropylcellulose) (HPC)
[25] = dose: 60.0 mg/kg/injection, schedule: Q01DX005 (ip), vehicle: Klucel (hydroxypropylcellulose) (HPC)
[26] = dose: 120.0 mg/kg/injection, schedule: Q01DX005 (ip), vehicle: Klucel (hydroxypropylcellulose) (HPC)

Measured: T/C

CSc1nc(NC2OCC(OC(C)=O)C(OC(C)=O)C2OC(C)=O)c(N=CC=Nc2c(NC3OCC(OC(C)=O)C(OC(C)=O)C3OC(C)=O)nc(SC)[nH]c2=O)c(=O)[nH]1 (stereo not given)
inactive: [1] 90 % of control | [2] 92 % of control | [3] 89 % of control

C/C=C(/C)C(=O)OC1CC(C)=C2C(=O)C=C(C)C2C2OC(=O)C(C)(OC(=O)/C(C)=C\C)C12 (stereo not given)
inactive: dose: 4.0 mg/kg/injection, schedule: Q01DX009 (ip), vehicle: Klucel (hydroxypropylcellulose) (HPC) 102 % of control | dose: 8.0 mg/kg/injection, schedule: Q01DX009 (ip), vehicle: Klucel (hydroxypropylcellulose) (HPC) 102 % of control | dose: 16.0 mg/kg/injection, schedule: Q01DX009 (ip), vehicle: Klucel (hydroxypropylcellulose) (HPC) 96 % of control | dose: 32.0 mg/kg/injection, schedule: Q01DX009 (ip), vehicle: Klucel (hydroxypropylcellulose) (HPC) 93 % of control

COc1cc(O)c(C(C)c2ccccc2)cc1N=O (stereo not given)
inactive: [4] 92 % of control | [5] 87 % of control | [6] 92 % of control

C=CC(=O)OCCCCCCCCCC
inactive: dose: 100.0 mg/kg/injection, schedule: Q04DX003 (ip), vehicle: Klucel (hydroxypropylcellulose) (HPC) 101 % of control | dose: 200.0 mg/kg/injection, schedule: Q04DX003 (ip), vehicle: Klucel (hydroxypropylcellulose) (HPC) 109 % of control | dose: 400.0 mg/kg/injection, schedule: Q04DX003 (ip), vehicle: Klucel (hydroxypropylcellulose) (HPC) 108 % of control

CCN(CC)C(=O)c1c(Cl)c(Cl)c(Cl)c(Cl)c1C(=O)O
inactive: [7] 112 % of control | [8] 96 % of control | [9] 96 % of control | [10] 102 % of control

CCCCN1NC1(C)c1ccccc1 (stereo not given)
inactive: [4] 108 % of control | [5] 104 % of control | [6] 112 % of control

O=c1c2sc3ccccc3c2ncn1C1CCCCC1
inactive: [11] 98 % of control | [12] 100 % of control | [13] 93 % of control

OC1(O)CCCCN1Cc1ccccc1
inactive: dose: 25.0 mg/kg/injection, schedule: Q01DX005 (ip), vehicle: saline 103 % of control | [14] 101 % of control | [15] 100 % of control | [16] 107 % of control

Nc1ncc2[nH]cnc2n1
inactive: [11] 102 % of control | [12] 100 % of control | [13] 103 % of control

Nc1nc(=O)[nH]s1
inactive: [17] 98 % of control | [18] 87 % of control and 94 % of control | [8] 95 % of control | [9] 90 % of control

CCOC(=O)c1ccc2c(c1)CCC2
inactive: dose: 50.0 mg/kg/injection, schedule: Q01DX009 (ip), vehicle: acetone 104 % of control | dose: 100.0 mg/kg/injection, schedule: Q01DX009 (ip), vehicle: acetone 104 % of control

CC1SCCCS1
inactive: dose: 50.0 mg/kg/injection, schedule: Q01DX009 (ip), vehicle: saline 98 % of control | dose: 100.0 mg/kg/injection, schedule: Q01DX009 (ip), vehicle: saline 98 % of control | dose: 200.0 mg/kg/injection, schedule: Q01DX009 (ip), vehicle: saline 97 % of control | dose: 400.0 mg/kg/injection, schedule: Q01DX009 (ip), vehicle: saline 97 % of control

S=c1[nH]c2cc(Cl)ccc2o1
inactive: [17] 108 % of control | [18] 96 % of control | dose: 25.0 mg/kg/injection, schedule: Q01DX009 (ip), vehicle: saline with Tween-80 117 % of control | [7] 105 % of control

On1cnc(=S)c2[nH]cnc21
inactive: [8] 90 % of control | dose: 100.0 mg/kg/injection, schedule: Q04DX003 (ip), vehicle: saline sonified 100 % of control | [9] 100 % of control | dose: 200.0 mg/kg/injection, schedule: Q04DX003 (ip), vehicle: saline sonified 100 % of control | [10] 109 % of control | dose: 400.0 mg/kg/injection, schedule: Q04DX003 (ip), vehicle: saline sonified 90 % of control

CCOC(=O)C(Cc1ccccc1)C1(C)SCCN1C(=O)OCC (stereo not given)
inactive: dose: 25.0 mg/kg/injection, schedule: Q01DX005 (ip), vehicle: saline with Tween-80 101 % of control | [4] 105 % of control | [5] 100 % of control | [6] 103 % of control

Cc1cc(C)c(S(=O)(=O)OCC2OC(OC3(COS(=O)(=O)c4c(C)cc(C)cc4C)OC(COS(=O)(=O)c4c(C)cc(C)cc4C)C(O)C3O)C(O)C(O)C2O)c(C)c1 (stereo not given)
inactive: dose: 25.0 mg/kg/injection, schedule: Q01DX009 (ip), vehicle: Klucel (hydroxypropylcellulose) (HPC) 107 % of control | [19] 99 % of control

O=C(O)c1ccccc1-c1c2ccc(=Nc3ccccc3)cc-2oc2cc(Nc3ccc(S(=O)(=O)O)cc3)ccc12
inactive: [14] 94 % of control | [15] 98 % of control | [16] 111 % of control

COc1ccc2c(c1)CCC1C2=CCC2C(=O)OC(=O)C21C (stereo not given)
inactive: [4] 103 % of control | [5] 108 % of control

CCCC(=O)N(CCC(N)=O)c1ncc([N+](=O)[O-])s1
inactive: [20] 94 % of control | [21] 100 % of control | [22] 100 % of control

CCCCCc1ccccc1O
inactive: [7] 100 % of control | [8] 95 % of control

COC(=O)c1ccccc1N1C(=O)c2ccccc2NP1(=O)Oc1ccccc1 (stereo not given)
inactive: [23] 101 % of control | [11] 104 % of control | [12] 106 % of control | [13] 91 % of control

NC(Cc1c[nH]c2ccccc12)C(=O)O (stereo not given)
inactive: [19] 99 % of control | [24] 107 % of control | dose: 200.0 mg/kg/injection, schedule: Q01DX009 (ip), vehicle: Klucel (hydroxypropylcellulose) (HPC) 104 % of control

CCCC[As](CCCC)SCC1OC(OC(C)=O)C(OC(C)=O)C(OC(C)=O)C1OC(C)=O (stereo not given)
inactive: [19] 113 % of control | [24] 92 % of control

CSP(C)(=O)CCC(C)=O (stereo not given)
inactive: [20] 100 % of control | [21] 100 % of control | [22] 102 % of control

CCc1ccc(S(=O)(=O)O)cc1
inactive: [7] 100 % of control | [8] 94 % of control | [9] 98 % of control

CCOc1cccc(/C=N/NC(=O)C(=O)Nc2cccc(C(F)(F)F)c2)c1O
inactive: dose: 12.5 mg/kg/injection, schedule: Q01DX005 (ip), vehicle: Klucel (hydroxypropylcellulose) (HPC) 98 % of control | [23] 95 % of control | [11] 89 % of control and 90 % of control

CCOC(=O)N(C)C(C)Cc1ccccc1 (stereo not given)
inactive: [7] 100 % of control | [8] 104 % of control | [9] 108 % of control

N=C(N)c1ccc(OCCCCOc2ccc(N)cc2)cc1
inactive: [25] 97 % of control | [26] 101 % of control

Nc1ncnc2nc(C3OC(CO)C(O)C3O)[nH]c12 (stereo not given)
inactive: [1] 104 % of control | [2] 98 % of control | [3] 95 % of control

Cc1ccc(S(=O)(=O)/C=C/c2ccc([N+](=O)[O-])o2)cc1
inactive: dose: 50.0 mg/kg/injection, schedule: Q01DX009 (ip), vehicle: suspension in saline 108 % of control | dose: 100.0 mg/kg/injection, schedule: Q01DX009 (ip), vehicle: suspension in saline 104 % of control | dose: 200.0 mg/kg/injection, schedule: Q01DX009 (ip), vehicle: suspension in saline 104 % of control

COc1ccc(CCNCC(O)CO/N=C(\C)c2ccc(N(C)C)cc2)cc1OC (stereo not given)
inactive: [25] 104 % of control | [26] 101 % of control | dose: 240.0 mg/kg/injection, schedule: Q01DX005 (ip), vehicle: Klucel (hydroxypropylcellulose) (HPC) 97 % of control

CC1C(C)(C)P(C)(=O)C1(C)C (stereo not given)
inactive: dose: 100.0 mg/kg/injection, schedule: Q04DX002 (ip), vehicle: saline with Tween-80 89 % of control | dose: 200.0 mg/kg/injection, schedule: Q04DX002 (ip), vehicle: saline with Tween-80 97 % of control
